Source: PubChem BioAssay AID2202554 (NIEHS Division of Translational Toxicology (DTT))
Inconclusive results are not listed. Active and inactive are the calls of the source. The rule behind the calls is not given here.

Tested on: S. typhimurium/E. coli reverse mutation, colony counts
Assay: Bacterial reverse mutation test (aka Ames test) summary data
Summary of the method: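 S. typhimurium his⁻ strains (TA97–TA1538) and E. coli WP2 uvrA pKM101 trp⁻, dosed over a range with or without rat, hamster or mouse liver S9. Preincubated 20 min at 37° C (or plate incorporation), plated in agar, incubated usually two days. Revertant colonies counted against negative controls.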

Question: OCCN1CN(CCO)CN(CCO)C1 was tested. Which outcome did it give?
Answer: active; positive

Question: Which outcome does the source give for CC(=O)c1ccc(S(=O)(=O)NC(=O)NC2CCCCC2)cc1 here?
Answer: inactive; negative

Question: For O=C(Cl)c1ccccc1F, which outcome is on record?
Answer: active; positive

Question: How did the outcome turn out when COCCO was run?
Answer: inactive; negative

Question: How did the outcome turn out when C1COCCN1 was run?
Answer: inactive; negative

Question: CCCCOB(OCCCC)OCCCC was tested. Which outcome did it give?
Answer: inactive; negative

Question: Which outcome does the source give for CCCCC/C=C\C/C=C\CCCCCCCC(=O)O here?
Answer: inactive; negative

Question: For CC1=C(/C=C/C(C)=C/C=C/C(C)=C/C=C/C=C(C)/C=C/C=C(C)/C=C/C2=C(C)CCCC2(C)C)C(C)(C)CCC1, which outcome is on record?
Answer: active; positive

Question: Which outcome does the source give for CCC(C)C(C)CO (stereo not drawn) here?
Answer: inactive; negative

Question: For c1cc2ccc3cccc4ccc(c1)c2c34, which outcome is on record?
Answer: active; positive

Question: c1ccc2c(c1)Oc1ccccc1S2 was tested. Which outcome did it give?
Answer: inactive; negative

Question: For Nc1ccc2c(c1)C(=O)c1ccccc1C2=O, which outcome is on record?
Answer: active; positive

Question: For NC(=O)c1ccccc1O, which outcome is on record?
Answer: inactive; negative

Question: For Cc1cc(C)cc(O)c1, which outcome is on record?
Answer: inactive; negative

Question: For C/C=C/C=C/C(=O)O, which outcome is on record?
Answer: inactive; negative

Question: How did the outcome turn out when CN(C)c1cccc(O)c1 was run?
Answer: active; positive

Question: Which outcome does the source give for CCCCNS(=O)(=O)c1ccccc1 here?
Answer: inactive; negative

Question: For CCCCCCCCCC(=O)O, which outcome is on record?
Answer: inactive; negative

Question: How did the outcome turn out when Oc1c(Cl)c(Cl)cc(Cl)c1Cl was run?
Answer: inactive; negative

Question: For CCC#N, which outcome is on record?
Answer: inactive; negative

Question: Which outcome does the source give for C=C(C)[C@@]12O[C@@]3(c4ccccc4)O[C@@H]1[C@@H]1[C@@H]4O[C@]4(CO)[C@@H](O)[C@]4(O)C(=O)C(C)=C[C@H]4[C@@]1(O3)[C@H](C)[C@H]2OC(=O)/C=C/C=C/c1ccccc1 here?
Answer: inactive; negative

Question: For CC(C)C#N, which outcome is on record?
Answer: inactive; negative

Question: Which outcome does the source give for CC=C1CC2C=CC1C2 (stereo not drawn) here?
Answer: inactive; negative

Question: O=C1OC(=O)c2c(Cl)c(Cl)c(Cl)c(Cl)c21 was tested. Which outcome did it give?
Answer: inactive; negative

Question: Which outcome does the source give for CN1C(CSCC(F)(F)F)Nc2cc(Cl)c(S(N)(=O)=O)cc2S1(=O)=O (stereo not drawn) here?
Answer: inactive; negative

Question: For CN(C)CCN(Cc1ccccc1)c1ccccc1, which outcome is on record?
Answer: inactive; negative

Question: With Cc1cccc([N+](=O)[O-])c1C(=O)O as the compound, how does the outcome read?
Answer: active; positive

Question: How did the outcome turn out when CCN(CC)C(=O)C(Cl)=C(C)OP(=O)(OC)OC was run?
Answer: active; positive

Question: How did the outcome turn out when O=[N+]([O-])c1ccc(F)c([N+](=O)[O-])c1 was run?
Answer: active; positive

Question: How did the outcome turn out when CCCCC(CC)COC(=O)CCCCCCCCC(=O)OCC(CC)CCCC (stereo not drawn) was run?
Answer: inactive; negative

Question: With O=[N+]([O-])c1cc([N+](=O)[O-])c2ccc(S(=O)(=O)O)cc2c1O as the compound, how does the outcome read?
Answer: active; positive

Question: Which outcome does the source give for Oc1ccc(/C=C/c2cc(O)cc(O)c2)cc1 here?
Answer: inactive; negative

Question: Which outcome does the source give for Cl/C=C/Cl here?
Answer: inactive; negative

Question: COP(=O)(OC)O/C(=C\Cl)c1cc(Cl)c(Cl)cc1Cl was tested. Which outcome did it give?
Answer: inactive; negative

Question: Which outcome does the source give for O=C(O)CC[N+](=O)[O-] here?
Answer: active; positive

Question: For CCCCOCCOCCO, which outcome is on record?
Answer: inactive; negative

Question: O=C([O-])c1ccccc1C1c2ccc([O-])c(Br)c2Oc2c1ccc(O)c2Br.[Zr+2] was tested. Which outcome did it give?
Answer: inactive; negative

Question: How did the outcome turn out when COc1ccc(C=O)cc1 was run?
Answer: inactive; negative

Question: Which outcome does the source give for CCOC(=O)C1OC1(C)c1ccccc1 (stereo not drawn) here?
Answer: inactive; negative

Question: COc1cc(/C=C/C(=O)CC(=O)/C=C/c2ccc(O)c(OC)c2)ccc1O was tested. Which outcome did it give?
Answer: inactive; negative

Question: How did the outcome turn out when O=Cc1ccc(CO)o1 was run?
Answer: active; weakly positive

Question: For C[CH2][Pb]([CH2]C)([CH2]C)[CH2]C, which outcome is on record?
Answer: inactive; negative

Question: NCCCNCCCN was tested. Which outcome did it give?
Answer: inactive; negative

Question: Which outcome does the source give for OC[C@H]1O[C@@H](Oc2ccc(O)cc2)[C@H](O)[C@@H](O)[C@@H]1O here?
Answer: inactive; negative

Question: How did the outcome turn out when Nc1cc(Cl)c(N)c(Cl)c1 was run?
Answer: active; positive

Question: With CCCCCCCCCCCC[S][Sn]([CH2]CCC)([CH2]CCC)[S]CCCCCCCCCCCC as the compound, how does the outcome read?
Answer: inactive; negative

Question: CCC(O)CN (stereo not drawn) was tested. Which outcome did it give?
Answer: inactive; negative

Question: COc1cc([C@H]2Oc3cc([C@H]4Oc5cc(O)cc(O)c5C(=O)[C@@H]4O)ccc3O[C@@H]2CO)ccc1O was tested. Which outcome did it give?
Answer: inactive; negative
